The values that follow come from PubChem BioAssay (NCI).

Experiment in all cases: DTP human tumour cell line panel, 48 h
The subject of test [1] is 786-0 renal.
Test [2] relates to CAKI-1 renal.
For test [3], the system named is HOP-92 NSCLC.
Test [4] relates to MDA-MB-435.
Test [5] has as its system OVCAR-3 ovarian.
The test system of test [6] is PC-3 prostate.
For test [7], the system named is SF-268 CNS.
Test [8] relates to SN12C renal.
Test [9] concerns SR leukemia.
The test system of test [10] is A549 NSCLC.

SMILES strings stand for the structures.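 Compound exposure: 48 hours, 5 concentrations, 96-well plates. The concentration for 50% growth inhibition is given as GI50. TGI is the concentration that stops growth completely.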

The term GI50 denotes the concentration at which growth is held to half of that of the control. What is called TGI is the concentration giving total growth inhibition. Higher therefore signals less potent growth arrest. Turning to `Cc1cccc(Oc2ccc(Nc3ncnc4ccc(NC(=O)CN5CCN(C)CC5)cc34)cc2Cl)c1`, the GI50 is 1.59 µM in test [1]; 1.19 µM in test [2]; 1.17 µM in test [3]; 1.59 µM in [4]; 1.42 µM in [5]; 1.78 µM in test [6]. For the same compound, the GI50 was 1.46 µM in [7], 1.72 µM in test [8] and 1.72 µM in test [9]. The TGI came to 2.99 µM in [1]; 2.66 µM in test [2]; 2.59 µM in test [3]; 2.99 µM in [4]; 2.99 µM in test [5]; 3.52 µM in [6]. The figures for the total growth inhibition concentration (TGI) in test [7], in test [8] and in test [9] were 3.16 µM, 3.44 µM and 5.32 µM, respectively.
Take `Nc1ccn(C2OC(COP(=O)(O)O)C(O)C2O)c(=O)n1` (centres undefined): the total growth inhibition concentration (TGI) in test [1], in [10], in test [2], in [3], in [4] and in test [5] was greater than 100 µM each time. Further, the TGI is greater than 100 µM in [6], greater than 100 µM in test [7], greater than 100 µM in test [8] and greater than 44.7 µM in test [9].
Regarding `CC1(C)CC2=NOS3=C2C(=NO3)C1c1ccccn1` (centres undefined), the total growth inhibition concentration (TGI) was greater than 100 µM in test [1]; greater than 100 µM in [10]; greater than 100 µM in [2]; greater than 100 µM in test [3]; 39 µM in [4]; greater than 100 µM in test [5]. Moreover, the TGI in test [6] is greater than 100 µM; in test [7] it was greater than 100 µM; in [8], greater than 100 µM; in test [9], 81 µM.
As to `C[C@]12CC[C@@H]3c4ccc(OCC(=O)O)cc4CC[C@H]3[C@@H]1CCC2=O`, the TGI in [1], in test [10], in [2], in test [3], in [4] and in [5] was greater than 100 µM each time. The TGI in test [6], in test [7], in [8] and in test [9] was greater than 100 µM each time.
For `Nc1nc(F)nc2c1ncn2C1OC(COP(=O)(O)O)C(O)C1O` (centres undefined), the TGI is 384 µM in test [1]; 511 µM in test [10]; greater than 68.4 µM in test [2]; 71.8 µM in test [3]; 218 µM in [4]; 546 µM in test [5]. Besides, the TGI was 322 µM in test [6], 874 µM in [7], 145 µM in test [8] and greater than 621 µM in test [9].
Turning to `CC(=O)O[C@H]1C(=O)[C@@]2(C)[C@H]([C@H](OC(=O)c3ccccc3)[C@]3(O)C[C@H](OC(=O)[C@H](OC(=O)CCC(=O)OC4CCC(S/N=C(N)/N=C(\N)N(C)C)CC4)[C@@H](NC(=O)c4ccccc4)c4ccccc4)C(C)=C1C3(C)C)[C@]1(OC(C)=O)CO[C@@H]1C[C@@H]2O` (some centres undefined), the GI50 in test [1] was 0.115 µM; in test [10], 0.0084 µM; in test [2], 1.27 µM; in test [5] it was 0.0112 µM; in test [6] it was 0.0155 µM; in [7], 0.0212 µM. Moreover, the figures for the GI50 in [8] and in [9] were 0.0325 µM and 0.00631 µM, respectively. The total growth inhibition concentration (TGI) in test [1], in test [10], in [2], in test [5], in test [6] and in test [7] was greater than 50 µM each time. In addition, the TGI in test [8] and in test [9] was greater than 50 µM in each case.
Regarding `O=[N+]([O-])c1ccccc1/C=C/C=C1c2ccccc2-c2ccccc21`, the GI50 was greater than 100 µM in [1]; greater than 100 µM in test [10]; greater than 100 µM in test [2]; greater than 100 µM in [3]; 12.4 µM in [4]; greater than 100 µM in [5]. Besides, the GI50 in test [6], in [7], in test [8] and in test [9] was greater than 100 µM each time. For the same compound, the total growth inhibition concentration (TGI) in test [1], in test [10], in [2], in [3], in test [4] and in test [5] was greater than 100 µM in each case. Further, the TGI in test [6], in test [7], in [8] and in [9] was greater than 100 µM each time.
As to `C[C@@H](Oc1cc(-c2cnn(C3CC4(CCNCC4)C3)c2)cnc1N)c1c(F)ccc(Cl)c1Cl`, the GI50 in [1] was 1.63 µM; in test [10] it was 1.04 µM; in test [2], 2.41 µM; in test [3], 0.54 µM; in test [4], 1.06 µM; in [5], 1.83 µM. In addition, the GI50 in test [6] was 0.758 µM; in test [7] it was 1.64 µM; in test [8], 1.49 µM; in test [9], 0.0467 µM. Also, the TGI in test [1] was determined as 3.17 µM; in test [10], 3.63 µM; in test [2], 7.2 µM; in [3], 3.13 µM; in test [4], 2.39 µM; in [5] it was 5.19 µM. Besides, the TGI in [6] was 5.79 µM; in [7], 4.71 µM; in test [8], 7.1 µM; in test [9] it was 1.53 µM.
With `O=C(CSc1nc2sc3c(c2c(=O)n1-c1ccccc1)CCCCC3)N/N=C/c1ccc(F)cc1`, the GI50 in test [1] was 5.49 µM; in [10], 2.48 µM; in test [2] it was 3.18 µM; in [3] it was 2.47 µM; in [4] it was 10.3 µM; in test [5], 1.78 µM. Moreover, the GI50 is 4.91 µM in [6], 2.14 µM in test [7], 1.99 µM in [8] and 0.357 µM in [9]. The TGI is 18.8 µM in test [1]; 10.8 µM in [10]; 13.5 µM in test [2]; 8.65 µM in test [3]; greater than 100 µM in test [4]; 4.07 µM in test [5]. The total growth inhibition concentration (TGI) in test [6] stood at 26.8 µM; in test [7], 6.57 µM; in test [8], 6.9 µM; in [9], 6.17 µM.
As for `COc1cc(-c2ccc(-[n+]3nc(-c4ccc([N+](=O)[O-])cc4)nn3-c3ccc([N+](=O)[O-])cc3)c(OC)c2)ccc1-[n+]1nc(-c2ccc([N+](=O)[O-])cc2)nn1-c1ccc([N+](=O)[O-])cc1`, the GI50 in test [1] was 3.45 µM; in [10] it was 3.46 µM; in [2] it was 15.1 µM; in test [4], 2.51 µM; in test [5], 9.77 µM; in test [6], 12.8 µM. Besides, the GI50 in test [7] is 1.66 µM; in test [8] it was 7.05 µM; in test [9] it was 30.4 µM. The TGI was 23.2 µM in [1]; 31.2 µM in test [10]; 48.5 µM in test [2]; 6.62 µM in [4]; 38.2 µM in test [5]; 36.5 µM in test [6]. Also, the TGI in test [7] was 5.38 µM; in test [8], 40.3 µM; in test [9], greater than 100 µM.
On to `O=C(Nc1nc(-c2ccc(Cl)cc2)cs1)c1ccc(O)c(O)c1`, for which the GI50 in test [1] is 4.07 µM; in test [10], 2.91 µM; in test [2], 3.02 µM; in test [3] it was 2.67 µM; in test [4], 3.18 µM; in [5] it was 5.03 µM. The GI50 in [7] is 3.54 µM; in test [8], 3.67 µM; in test [9], 2.09 µM. For the same compound, the TGI in test [1] was 15.3 µM; in [10], 14.3 µM; in test [2] it was 10.9 µM; in test [3] it was 9.18 µM; in [4] it was 14.4 µM; in [5] it was 18.2 µM. The values for the TGI in test [7], in [8] and in test [9] were 13.9 µM, 15.7 µM and 9.26 µM, respectively.
`Cc1cc(S(=O)(=O)/N=C(\N)n2nc(C)c(C)c2C)c(SCc2ccccc2)cc1Cl`: the GI50 in test [1] was greater than 100 µM; in test [10] it was 14 µM; in test [3], 3.17 µM; in [4] it was 3.23 µM; in test [5] it was 46.4 µM; in [6], 6.04 µM. For the same compound, the GI50 in test [7], in test [8] and in test [9] was greater than 100 µM throughout. Further, the TGI in test [1], in [10], in test [3], in test [4], in [5] and in test [6] was greater than 100 µM throughout. Further, the concentration for total growth inhibition (TGI) in test [7], in test [8] and in test [9] was greater than 100 µM throughout.
For `Cc1cc(Nc2nc(N3CCOCC3)nc3ccccc23)n[nH]1`, the GI50 in [1] is 3.91 µM; in test [10] it was 5.2 µM; in test [2] it was 1.4 µM; in [3], 4.22 µM; in [4] it was 4.03 µM; in [5] it was 11.5 µM. For the same compound, the GI50 is 6.21 µM in test [7], 4.23 µM in [8] and 3.65 µM in test [9]. Also, the total growth inhibition concentration (TGI) in [1] is 26.1 µM; in [10], greater than 100 µM; in test [2], 12.3 µM; in test [3], 62.8 µM; in test [4], greater than 100 µM; in test [5], greater than 100 µM. For the same compound, the TGI in test [7] is 35.2 µM; in [8] it was greater than 100 µM; in test [9], 28.1 µM.
For the compound `Nc1c(C(=O)Nc2cccc3ccccc23)sc2nc3c(cc12)CCCCC3`, the GI50 is 0.443 µM in test [1]; 1.9 µM in test [10]; 0.375 µM in test [3]; 0.116 µM in test [4]; 0.542 µM in test [5]; 1.07 µM in test [6]. For the same compound, the GI50 in test [7] was 2.82 µM; in test [8], 2.26 µM; in test [9], 0.214 µM. The TGI in test [1] is greater than 50 µM; in [10] it was greater than 50 µM; in [3] it was greater than 50 µM; in test [4], 0.32 µM; in [5], greater than 50 µM; in test [6], greater than 50 µM. For the same compound, the TGI in test [7], in [8] and in [9] was greater than 50 µM in each case.
With `CC1=C([Se]CC(OC(=O)[C@@H](CSSC(C)(C)C)NC(=O)C(C)(C)C)C(=O)NCCCCCC(=O)OCc2ccccc2)C(=O)c2ccccc2C1=O` (some centres undefined), the GI50 in test [1] was 2.1 µM; in test [10], 2.11 µM; in test [2], 2.18 µM; in test [4], 2.28 µM; in [5], 1.87 µM; in test [6] it was 1.5 µM. The GI50 in test [7] was 1.91 µM; in [8], 2 µM; in test [9] it was 3.84 µM. The TGI in test [1] is 3.66 µM; in test [10] it was 5.42 µM; in test [2] it was 4.52 µM; in test [4], 5.55 µM; in test [5], 3.38 µM; in test [6], 3.63 µM. Also, the TGI in test [7] stood at 3.51 µM; in test [8] it was 3.89 µM; in [9], 18.5 µM.
For `O=C(CCc1ccc(O)c(O)c1)c1ccc(O)c(O)c1O`, the TGI in test [1] was greater than 100 µM; in test [10], greater than 100 µM; in test [2] it was 37.9 µM; in test [3], 68.4 µM; in test [4] it was 62.2 µM; in test [6], greater than 100 µM. For the same compound, the TGI in test [7] was 60.6 µM; in test [8], 31.9 µM; in [9], greater than 100 µM.
On to `CCN(CC)CCCC(C)N/C(c1cccc(OC)c1)=c1\c(=O)[nH]n(-c2c3ccccc3nc3ccccc23)c(=O)\c1=C(/NC(C)CCCN(CC)CC)c1cccc(OC)c1` (centres undefined), for which the GI50 in [1] is 1.17 µM; in test [10], 0.992 µM; in [2] it was 1.66 µM; in [4] it was 1.45 µM; in test [5], 1.8 µM; in [6] it was 1.2 µM. The GI50 in [7] is 1.4 µM; in test [8], 1.74 µM; in [9] it was 1.28 µM. The TGI in [1] worked out at 3.04 µM; in test [10], 4.25 µM; in test [2] it was 4.17 µM; in [4], 2.98 µM; in [5], 5.4 µM; in [6] it was 4.97 µM. In addition, the figures for the TGI in test [7], in test [8] and in [9] were 4.87 µM, 10.8 µM and 5.61 µM, respectively.
